Read-outs that look alike come from different tables or passages of the source.
How the values were obtained:
[1] = target: T1, c-Met (baculovirus expressed human c-Met kinase domain P948-S1343) (Homo sapiens, UniProt P08581); assay: c-Met Luciferase-Coupled Chemiluminescent Kinase assay (LCCA); format: biochemical;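 note: kinase activity read as percent ATP left after reaction, by luciferase-luciferin chemiluminescence, with 1 µM ATP and 1 µM poly-EY substrate, 2 h at ambient temperature, 10-point dose-response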
T1 construct: human c-Met kinase domain P948-S1343; host or cells: baculovirus expression
T1 sequence (P08581 1011-1343 limits assumed): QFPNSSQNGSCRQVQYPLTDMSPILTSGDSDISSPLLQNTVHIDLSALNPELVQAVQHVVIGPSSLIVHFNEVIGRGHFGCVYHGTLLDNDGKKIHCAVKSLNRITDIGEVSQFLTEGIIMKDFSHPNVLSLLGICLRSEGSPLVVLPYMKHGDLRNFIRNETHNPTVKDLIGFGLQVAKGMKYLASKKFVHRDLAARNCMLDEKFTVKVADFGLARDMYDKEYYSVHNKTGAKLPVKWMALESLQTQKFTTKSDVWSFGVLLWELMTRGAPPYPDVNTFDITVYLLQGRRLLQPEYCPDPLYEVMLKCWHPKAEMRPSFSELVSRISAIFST
Description: Kinase activity and compound inhibition are investigated using one or more of the three assay formats described below. The ATP concentrations for each assay are selected to be close to the Michaelis-Menten constant (KM) for each individual kinase. Dose-response experiments are performed at 10 different inhibitor concentrations in a 384-well plate format. […] Typically H is close to unity. c-Met Assay
c-Met biochemical activity was assessed using a Luciferase-Coupled Chemiluminescent Kinase assay (LCCA) format as described above. Again, kinase activity was measured as the percent ATP remaining following the kinase reaction. Remaining ATP was detected by luciferase-luciferin-coupled chemiluminescence. Specifically, the reaction was initiated by mixing test compounds, 1 μM ATP, 1 μM poly-EY and 10 nM c-Met (baculovirus expressed human c-Met kinase domain P948-S1343) in a 20 uL assay buffer (20 mM Tris-HCL pH7.5, 10 mM MgCl2, 0.02% Triton X-100, 100 mM DTT, 2 mM MnCu2). The mixture is incubated at ambient temperature for 2 hours after which 20 uL luciferase-luciferin mix is added and the chemiluminescent signal read using a Wallac Victor^2 reader.

[2] = target: T2, KDR (baculovirus expressed human KDR kinase domain D807-V1356) (Homo sapiens, UniProt P35968); assay: biochemical;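 note: Luciferase-coupled chemiluminescent kinase assay, activity read as percent ATP left after 4 h reaction at ambient temperature, ATP near KM, 10-point dose-response in 384-well plates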
T2 construct: human KDR kinase domain D807-V1356; host or cells: baculovirus expression
T2 sequence (P35968 807-1356): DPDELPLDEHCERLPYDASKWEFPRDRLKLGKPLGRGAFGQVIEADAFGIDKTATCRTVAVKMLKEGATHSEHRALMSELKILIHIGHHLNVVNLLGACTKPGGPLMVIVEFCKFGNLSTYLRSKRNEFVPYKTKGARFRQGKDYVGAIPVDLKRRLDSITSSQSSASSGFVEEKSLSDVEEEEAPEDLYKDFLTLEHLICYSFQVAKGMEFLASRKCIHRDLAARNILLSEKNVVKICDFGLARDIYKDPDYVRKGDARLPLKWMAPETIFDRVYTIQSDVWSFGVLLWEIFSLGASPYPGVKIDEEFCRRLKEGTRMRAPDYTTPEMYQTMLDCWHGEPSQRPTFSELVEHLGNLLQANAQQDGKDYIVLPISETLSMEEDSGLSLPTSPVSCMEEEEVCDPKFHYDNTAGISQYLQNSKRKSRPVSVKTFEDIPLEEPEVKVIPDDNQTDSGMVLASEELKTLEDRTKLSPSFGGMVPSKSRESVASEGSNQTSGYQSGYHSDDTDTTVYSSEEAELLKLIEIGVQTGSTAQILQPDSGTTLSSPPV

[3] = Table 4, inhibition as IC50 class

| Compound | IC50 [1] [nM] | IC50 [2] [nM] | IC50 [1, 3] [nM] | IC50 [2, 3] [nM] |
| --- | --- | --- | --- | --- |
| COc1cc2nc(N)cc(Oc3ccc(NC(=O)C4(C(=O)Nc5ccc(F)cc5)CC4)cc3F)c2cc1OC [Example 340, N-(4-{[2-amino-6,7-bis(methyloxy)quinolin-4-yl]oxy}-3-fluorophenyl)-N′-(4-fluorophenyl)cyclopropane-1,1-dicarboxamide] | 500 to 5000 | 500 to 5000 |  |  |
| COc1cc2nccc(Oc3ncc(NC(=O)CN(Cc4ccccc4)C(=O)OC(C)(C)C)cc3Cl)c2cc1OC [Entry 92] | 500 to 5000 |  |  |  |
| COc1cc2nccc(Oc3ccc(NC(=O)[C@@H]4CCCN4Cc4ccccc4)cc3)c2cc1OC [Example 111, N-(4-{[6,7-bis(methyloxy)quinolin-4-yl]oxy}phenyl)-1-(phenylmethyl)prolinamide] | 500 to 5000 | 500 to 5000 |  |  |
| COc1cc2nccc(Oc3ccc(NC(=O)/C(C)=N/OCc4ccccc4)cc3)c2cc1OC [Example 110, (2E)-N-(4-{[6,7-bis(methyloxy)quinolin-4-yl]oxy}phenyl)-2-{[(phenylmethyl)oxy]imino} propanamide] | 50 to 500 | 50 to 500 |  |  |
| COc1cc2nc(C)nc(Oc3ccc(NC(=O)C4(C(=O)Nc5ccc(F)cc5)CC4)cc3)c2cc1OC [Example 339, N-(4-fluorophenyl)-N′-(4-{[2-methyl-6,7-bis(methyloxy)quinazolin-4-yl]oxy}phenyl)cyclopropane-1,1-dicarboxamide] | 500 to 5000 | 500 to 5000 |  |  |
| COc1cc2nc(SC)cc(Oc3ccc(NC(=O)C4(C(=O)Nc5ccc(F)cc5)CC4)cc3F)c2cc1OC [Example 338, N-(4-{[6,7-bis(methyloxy)-2-(methylthio)quinolin-4-yl]oxy}-3-fluorophenyl)-N′-(4-fluorophenyl)cyclopropane-1,1-dicarboxamide] | 500 to 5000 | 500 to 5000 |  |  |
| COc1cc2nccc(Oc3ccc(NC(=O)CN(C)CCc4cccc(C(F)(F)F)c4)cc3F)c2cc1OC [Entry 100] | 500 to 5000 |  |  |  |
| COc1cc2c(Oc3ccc(NC(=O)C(=O)NCCc4ccccc4)cc3F)ccnc2cc1OCC1CNC1 [Example 249, N-(4-{[7-[(azetidin-3-ylmethyl)oxy]-6-(methyloxy)quinolin-4-yl]oxy}-3-fluorophenyl)-N′-(2-phenylethyl)ethanediamide] |  |  | < 50 | < 50 |
| COc1cc2nccc(Oc3cc4sc(NCc5cccc(C(F)(F)F)c5)nc4cc3F)c2cc1OC [Entry 85] | 500 to 5000 |  |  |  |
| COc1cc2nccc(Oc3ccc(NC(=O)C(C)N(C)Cc4ccccc4)cc3)c2cc1OC (stereo not shown) [Example 118, N1-(4-{[6,7-bis(methyloxy)quinolin-4-yl]oxy}phenyl)-N2-methyl-N2-(phenylmethyl) alaninamide] | 500 to 5000 | 500 to 5000 |  |  |
| COc1cc2nccc(Oc3ncc(NC(=O)CC(=O)Nc4ccc(Cl)cc4)cc3Cl)c2cc1OC [Entry 107] | 50 to 500 |  |  |  |
| COc1cc2nccc(Oc3ccc(NC(=O)[C@H](CC(C)C)NCc4ccccc4)cc3)c2cc1OC [Example 119, N1-(4-{[6,7-bis(methyloxy)quinolin-4-yl]oxy}phenyl)-N2-(phenylmethyl)leucinamide] | 500 to 5000 | 500 to 5000 |  |  |
| COc1cc2nccc(Oc3ccc(N4CCN(Cc5ccccc5)CC4=O)cc3)c2cc1OC [Example 116, 1-(4-{[6,7-bis(methyloxy)quinolin-4-yl]oxy}phenyl)-4-(phenylmethyl)piperazin-2-one] | 500 to 5000 | 500 to 5000 |  |  |
| COc1cc2nccc(Oc3ncc(NC(=O)CC(=O)Nc4ccc(F)cc4F)cc3Cl)c2cc1OC [Example 252, N-(6-{[6,7-bis(methyloxy)quinolin-4-yl]oxy}-5-chloropyridin-3-yl)-N′-(2,4-difluorophenyl)propanediamide] |  |  | < 50 | 500 to 5000 |
| COc1cc2nccc(Oc3ccc(N4CCN(C(=O)Cc5ccccc5)C4=O)cc3F)c2cc1OC [Entry 6] | 50 to 500 |  |  |  |
| COc1cc2nccc(Oc3ncc(NC(=O)CC(=O)N(C)c4ccc(F)cc4)cc3Cl)c2cc1OC [Example 253, N′-(6-{[6,7-bis(methyloxy)quinolin-4-yl]oxy}-5-chloropyridin-3-yl)-N-(4-fluorophenyl)-N-methylpropanediamide] |  |  | 50 to 500 | 500 to 5000 |
| COc1cc2nccc(Oc3ncc(NC(=O)CNCc4ccccc4)cc3Cl)c2cc1OC [Entry 93] | 500 to 5000 |  |  |  |
| COc1cc2nccc(Oc3ncc(NC(=O)CC(=O)Nc4cccc(F)c4)cc3Cl)c2cc1OC [Example 290, N-(6-{[6,7-bis(methyloxy)quinolin-4-yl]oxy}-5-chloropyridin-3-yl)-N′-(3-fluorophenyl)propanediamide] | 50 to 500 | 500 to 5000 |  |  |
| COc1cc2nccc(Oc3ccc(N(Cc4ccccc4)S(=O)(=O)NCc4ccccc4)cc3F)c2cc1OC [Entry 66] | 500 to 5000 |  |  |  |
| COc1cc2nccc(Oc3ccc(S(=O)(=O)N(C)CCCc4ccccc4)cc3F)c2cc1OC [Entry 25] | 500 to 5000 |  |  |  |
| COc1cc2nccc(Oc3cc4sc(NCCOc5ccccc5)nc4cc3F)c2cc1OC [Entry 81] | 50 to 500 |  |  |  |

| Compound | IC50 [1] [nM] | IC50 [2] [nM] | IC50 [1, 3] [nM] | IC50 [2, 3] [nM] |
| --- | --- | --- | --- | --- |
| COc1cc2nccc(Oc3ccc(NC(=O)C(CC(C)C)N(C)Cc4ccccc4)cc3)c2cc1OC (stereo not shown) [Example 120, N1-(4-{[6,7-bis(methyloxy)quinolin-4-yl]oxy}phenyl)-N2-methyl-N2-(phenylmethyl) leucinamide] | 500 to 5000 | 500 to 5000 |  |  |
| N-{3-fluoro-4-[(7-(methyloxy)-6- {[(1-methylpiperidin-4- yl)methyl]oxy}quinazolin-4- yl)oxy]phenyl}-N′-(4- fluorophenyl)cyclopropane-1,1- dicarboxamide [Entry 31] | 500 to 5000 |  |  |  |
| COc1cc2nccc(Oc3ccc(NC(=O)C4(C(=O)Nc5cccc(CN6CCCCC6)c5)CC4)cc3)c2cc1OC [Example 400, N-(4-{[6,7-bis(methyloxy)quinolin-4-yl]oxy}phenyl)-N′-[3-(piperidin-1-ylmethyl)phenyl]cyclopropane-1,1-dicarboxamide] | 50 to 500 | < 50 |  |  |
| COc1cc2nccc(Oc3ccc(N4CCN(Cc5ccccc5)CC4)cc3)c2cc1OC [Example 115, 6,7-bis(methyloxy)-4-({4-[4-(phenylmethyl)piperazin-1-yl]phenyl}oxy)quinoline] | 500 to 5000 | 500 to 5000 |  |  |
| COc1cc2nccc(Oc3ccc(NC(=O)C4(C(=O)Nc5cccc(CN6CCCC6)c5)CC4)cc3)c2cc1OC [Example 401, N-(4-{[6,7-bis(methyloxy)quinolin-4-yl]oxy}phenyl)-N′-[3-(pyrrolidin-1-ylmethyl)phenyl]cyclopropane-1,1-dicarboxamide] | < 50 | < 50 |  |  |
| COc1cc2c(Oc3ccc(NC(=O)[C@]4(C(=O)Nc5ccc(F)cc5)C[C@H]4C)cc3F)ncnc2cc1OCCCN1CCOCC1 [Example 347, (1R,2R)-N-[3-fluoro-4-({6-(methyloxy)-7-[(3-morpholin-4-ylpropyl)oxy]quinazolin-4-yl}oxy)phenyl]-N′-(4-fluorophenyl)-2-methylcyclopropane-1,1-dicarboxamide] | < 50 | < 50 |  |  |
| COc1cc2nccc(Oc3ccc(NC(=O)C(=O)N[C@H]4CCc5ccccc5C4)cc3F)c2cc1OC [Entry 62] | 500 to 5000 |  |  |  |
| COc1cc2nccc(Oc3ncc(NC(=O)C(=O)NCCc4ccccc4)cc3Cl)c2cc1OC [Entry 69] | 500 to 5000 |  |  |  |
| COc1cc2nccc(Oc3ncc(NC(=O)CC(=O)Nc4cccc(C(F)(F)F)c4)cc3Cl)c2cc1OC [Entry 87] | 500 to 5000 |  |  |  |
| COc1cc2nccc(Oc3cc4sc(N(C)CCc5ccccc5)nc4cc3F)c2cc1OC [Entry 83] | 500 to 5000 |  |  |  |
| COc1cc2nccc(Oc3ccc(N4CC(Cc5ccccc5)NC4=O)cc3)c2cc1OC (stereo not shown) [Example 113, 1-(4-{[6,7-bis(methyloxy)quinolin-4-yl]oxy}phenyl)-4-(phenylmethyl)imidazolidin-2-one] | 500 to 5000 | 500 to 5000 |  |  |
| CO/N=C(\C)C(=O)Nc1ccc(Oc2ccnc3cc(OC)c(OC)cc23)cc1 [Example 108, (2E)-N-(4-{[6,7-bis(methyloxy)quinolin-4-yl]oxy}phenyl)-2-[(methyloxy)imino] propanamide] | 50 to 500 | 50 to 500 |  |  |
| COc1cc2nccc(Oc3ccc(NC4=NC(Cc5ccccc5)CO4)cc3)c2cc1OC (stereo not shown) [Example 114, N-(4-{[6,7-bis(methyloxy)quinolin-4-yl]oxy}phenyl)-4-(phenylmethyl)-4,5-dihydro-1,3-oxazol-2-amine] | 500 to 5000 | 50 to 500 |  |  |
| COc1cc2nccc(Oc3cc4sc(NCCN5CCCC5)nc4cc3F)c2cc1OC [Entry 84] | 500 to 5000 |  |  |  |
| CNc1cc(Oc2ccc(NC(=O)C3(C(=O)Nc4ccc(F)cc4)CC3)cc2F)c2cc(OC)c(OC)cc2n1 [Example 341, N-(3-fluoro-4-{[2-(methylamino)-6,7-bis(methyloxy)quinolin-4-yl]oxy}phenyl)-N′-(4-fluorophenyl)cyclopropane-1,1-dicarboxamide] | 500 to 5000 | 500 to 5000 |  |  |
| CCN(CC)CCOc1cc2ncnc(Oc3ccc(NC(=O)C4(C(=O)Nc5ccc(F)cc5)CCC4)cc3F)c2cc1OC [Example 363, N-(4-{[7-{[2-(diethylamino)ethyl]oxy}-6-(methyloxy)quinazolin-4-yl]oxy}-3-fluorophenyl)-N′-(4-fluorophenyl)cyclobutane-1,1-dicarboxamide] | < 50 | < 50 |  |  |
| COc1cc2nccc(Oc3ncc(NC(=O)CC(=O)Cc4ccccc4)cc3Cl)c2cc1OC [Entry 79] | 500 to 5000 |  |  |  |
| COc1cc2nccc(Oc3ccc(NC(=O)C(C)NCc4ccccc4)cc3)c2cc1OC (stereo not shown) [Example 117, N1-(4-{[6,7-bis(methyloxy)quinolin-4-yl]oxy}phenyl)-N2-(phenylmethy)alaninamide] | 500 to 5000 | 500 to 5000 |  |  |
| COc1cc2nccc(Oc3cc4sc(NCCc5cccc(C(F)(F)F)c5)nc4cc3F)c2cc1OC [Entry 86] | 500 to 5000 |  |  |  |
| COc1cc2nccc(Oc3cc4sc(NC(=O)CCc5ccccc5)nc4cc3F)c2cc1OC [Entry 53] | 500 to 5000 |  |  |  |

Reference: patent US8476298B2 (Exelixis, Inc., priority 2003, dated 2013)
